This passage reports drug sensitivity score results from the supplement of paper PMC11003180.

Each structure is given as a SMILES string.

Holding throughout (test): drug sensitivity score (DSS) from 5-dose viability curve (DSS (area-based score, 0 = no response)); higher = more sensitive (stronger viability inhibition); extreme values may be limits of the assay
Assay [1] deals with MDCK p60AmotL2-inducible + doxycycline (p60AmotL2 expressing). To be noted: doxycycline: 10 ng/mL; 72 h. An outline of the steps:
(§1)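 Parental MDCK cells and MDCK cells with a doxycycline-inducible transgene were both grown with doxycycline at 10 ng/mL in the medium before plating, then dispensed at 2000 cells/well into 384-well plates pre-spotted with an oncology library of 528 drugs at five doses (1-10,000 nM). After 72 h at 37 °C, CellTiter-Glo luminescence was recorded and scaled on each plate between vehicle and positive controls. This scaled signal served as the viability readout, and drug sensitivity scores were derived from dose-response curve fits in the Breeze pipeline.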

Assay [2] relates to MDCK wild-type + doxycycline. To be noted: doxycycline: 10 ng/mL; 72 h. Put shortly:
as §1

The subject of assay [3] is MDCK wild-type - doxycycline. The note with it: doxycycline: none; 72 h. Put shortly:
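For 72 h at 37 °C, parental MDCK cells (no doxycycline, 2000 cells/well) were incubated on 384-well plates pre-spotted with 528 oncology drugs at five doses from 1 to 10,000 nM. CellTiter-Glo luminescence served as the viability readout, scaled per plate between vehicle and positive controls. The Breeze pipeline then fitted dose-response curves to yield drug sensitivity scores.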

`CCOc1ccn(-c2ccc(F)cc2)c(=O)c1C(=O)Nc1ccc(Oc2ccnc(N)c2Cl)c(F)c1`: the drug sensitivity score in assay [1], in assay [2] and in assay [3] was 0 throughout.

In the case of `CCn1c(C(=O)N(C2CC2)C2CC2)cc2c3c(ncn3C)c(Nc3cc(C)n(C)n3)nc21`, the drug sensitivity score in assay [1], in assay [2] and in assay [3] was 0 in each case.

Turning to `CN(C)CC#Cc1ccc(OCCCc2sc(N3CCc4cccc(C(=O)Nc5nc6ccccc6s5)c4C3)nc2C(=O)O)c(F)c1`, the drug sensitivity score in assay [1], in assay [2] and in assay [3] was 0 each time.

In the case of `CN1CCN(C2CCC(n3cc(-c4ccc(Oc5ccccc5)cc4)c4c(N)ncnc43)CC2)CC1` (centres undefined), the drug sensitivity score was found to be 14 in assay [1], 9.4 in assay [2] and 7 in assay [3].

Turning to `C[C@@]1(C(=O)Nc2ccc(F)nc2)CCCN1c1nc(Nc2cc(C3CC3)n[nH]2)c2cccn2n1`, the values for the drug sensitivity score in assay [1], in assay [2] and in assay [3] were 12.6, 8.5 and 0, respectively.

Consider `C[C@H]1C[C@@H](n2c(Nc3ccc(OC(F)(F)F)cc3)nc3cc(CCC(=O)O)ccc32)CC(C)(C)C1`, for which the drug sensitivity score in assay [1], in assay [2] and in assay [3] was 0 throughout.

On to `Cc1c(-c2ccc(N3CCc4cccc(C(=O)Nc5nc6ccccc6s5)c4C3)nc2C(=O)O)cnn1CC12CC3CC(CC(C3)C1)C2`, for which the drug sensitivity score in assay [1], in assay [2] and in assay [3] was 0 throughout.

`Cc1nn(C)c(COc2ccc(N3CCN(S(=O)(=O)N(C)C)CC3)cc2)c1-c1cccc2c(CCCOc3cccc4ccccc34)c(C(=O)O)n(CCN3CCOCC3)c12`: the drug sensitivity score worked out at 5.3 in assay [1], 5.3 in assay [2] and 5.1 in assay [3].

Take `N#Cc1ccc(COC[C@H]2O[C@@H](n3c(NCc4ccc(Cl)c(Cl)c4)nc4c(N)ncnc43)[C@H](O)[C@@H]2O)cc1`: the drug sensitivity score in assay [1], in assay [2] and in assay [3] was 0 in each case.

Regarding `NC[C@@](O)(c1ccc(Cl)cc1)c1ccc(-c2cn[nH]c2)cc1`, the drug sensitivity score in assay [1], in assay [2] and in assay [3] was 0 throughout.

As for `O=c1[nH]c(C2CCCN2)nc2c1oc1ccc(Cl)cc12` (centres undefined), the drug sensitivity score in assay [1], in assay [2] and in assay [3] was 0 in each case.

With `COc1ccc(C[C@H](NC(=O)[C@H](C)NC(=O)CN2CCOCC2)C(=O)N[C@@H](Cc2ccccc2)C(=O)C2(C)CO2)cc1` (stereo in doubt) [ONX-0914], the figures for the drug sensitivity score in assay [1], in assay [2] and in assay [3] were 12.5, 10.4 and 8.6, respectively.

As for `Cn1cc(C[C@@H](N)C(=O)O)c2ccccc21` [1-methyl-D-tryptophan], the drug sensitivity score in assay [1], in assay [2] and in assay [3] was 0 throughout.

For the molecule `CC/C(=C(\c1ccc(O)cc1)c1ccc(OCCN(C)C)cc1)c1ccccc1` [4-hydroxytamoxifen], the drug sensitivity score in assay [1] came to 5.7; in assay [2] it was 4.3; in assay [3], 1.2.

With `Nc1ncnc2c1nc(N)n2[C@@H]1O[C@H](CO)[C@@H](O)[C@H]1O` [8-amino-adenosine], the drug sensitivity score was determined as 19.8 in assay [1], 18.2 in assay [2] and 18.2 in assay [3].

On to `Nc1ncnc2c1nc(Cl)n2[C@@H]1O[C@H](CO)[C@@H](O)[C@H]1O` [8-chloro-adenosine], for which the drug sensitivity score in assay [1] was found to be 13.6; in assay [2] it was 8.3; in assay [3], 6.7.

For the molecule `COc1cc2c(cc1OCCCN1CCCC1)N=C(N)C21CCC1` [A-366], the drug sensitivity score in assay [1], in assay [2] and in assay [3] was 0 in each case.

For `COc1ccc(S(=O)(=O)Nc2cccnc2Nc2ccc(O)cc2)cc1` [ABT-751], the results for the drug sensitivity score in assay [1], in assay [2] and in assay [3] were 16, 16.6 and 15.3, respectively.

Consider `C[C@H](Nc1ncnc2[nH]cnc12)c1cc2ccc(F)cc2nc1-c1ccccn1` [AMG319], for which the drug sensitivity score in assay [1], in assay [2] and in assay [3] was 0 in each case.

On to `CC(C)[C@@H](CS(=O)(=O)C(C)C)N1C(=O)[C@@](C)(CC(=O)O)C[C@H](c2cccc(Cl)c2)[C@H]1c1ccc(Cl)cc1` [AMG-232], for which the drug sensitivity score amounted to 9.8 in assay [1], 7.2 in assay [2] and 5.9 in assay [3].

In the case of `COCCOc1cnc2ccn([C@H](C)c3nnc4c(F)cc(-c5cnn(C)c5)cn34)c(=O)c2c1` [AMG-337], the drug sensitivity score in assay [1], in assay [2] and in assay [3] was 0 throughout.

As for `CC1CCC(n2c3cnccc3c3cnc(Nc4ccc5c(n4)CCN(C(=O)CO)C5)nc32)CC1` (centres undefined) [AMG-925], the figures for the drug sensitivity score in assay [1], in assay [2] and in assay [3] were 1.3, 0 and 0, respectively.

For the molecule `COCC1(CO)C(=O)C2CCN1CC2` (centres undefined) [APR-246], the drug sensitivity score in assay [1], in assay [2] and in assay [3] was 0 in each case.

Consider `CC(C)[C@H](C(=O)Nc1ccc(C(=O)NO)cc1)c1ccccc1` [AR-42], for which the drug sensitivity score in assay [1] turned out to be 14; in assay [2] it was 12.4; in assay [3], 10.4.

For the molecule `Cc1sc2c(c1C)C(c1ccc(Cl)cc1)=N[C@@H](CC(=O)Nc1ccc(OCCOCCOCCOCCNc3cccc4c3C(=O)N(C3CCC(=O)NC3=O)C4=O)cc1)c1nnc(C)n1-2` (some centres undefined) [ARV-825], the drug sensitivity score in assay [1] is 11.2; in assay [2], 7.3; in assay [3], 5.5.

As for `COc1cc(N2CCC(N3CCN(C)CC3)CC2)ccc1Nc1ncnc(Nc2ccccc2S(=O)(=O)C(C)C)n1` [ASP3026], the drug sensitivity score in assay [1] was 9.5; in assay [2], 6.5; in assay [3], 6.3.

Consider `O=C(NC1CCNCC1)c1n[nH]cc1NC(=O)c1c(Cl)cccc1Cl` [AT7519], for which the drug sensitivity score in assay [1] is 9.1; in assay [2], 8.9; in assay [3] it was 8.2.

On to `O=C(Nc1c[nH]nc1-c1nc2ccc(CN3CCOCC3)cc2[nH]1)NC1CC1` [AT9283], for which the drug sensitivity score is 6.5 in assay [1], 2 in assay [2] and 0 in assay [3].

On to `CN[C@@H](C)C(=O)N[C@H]1CN(C(=O)CC(C)C)CC[C@H]2CC[C@@H](C(=O)NC(c3ccccc3)c3ccccc3)N2C1=O` [AT-406], for which the drug sensitivity score in assay [1] was determined as 0; in assay [2], 0.1; in assay [3], 0.

In the case of `CC[C@H](CC#N)OC(=O)N[C@@H](C)c1cccc(NC(=O)Nc2ccc(-c3cnco3)c(OC)c2)c1` [AVN944], the drug sensitivity score in assay [1] amounted to 18.5; in assay [2], 12.6; in assay [3], 11.1.

In the case of `COc1cc(N2CCN(C)CC2)ccc1Nc1nccc(-c2cn(C)c3cnccc23)n1` [AZ191], the drug sensitivity score stood at 2.2 in assay [1], 2.5 in assay [2] and 0 in assay [3].

Turning to `COc1cc(OC2CCN(C)CC2)ccc1Nc1ncc2c(n1)n(C1CCCC1)c(=O)n2C` [AZ 3146], the drug sensitivity score worked out at 6.3 in assay [1], 5.1 in assay [2] and 5.1 in assay [3].

On to `CN(C)CCCOc1ccc(-c2ccc3ncc4c(c3c2)n(C2CCOCC2)c(=O)n4C)cn1` [AZD0156], for which the drug sensitivity score in assay [1] is 1; in assay [2], 0; in assay [3] it was 0.

In the case of `N[C@@H]1CCCN(c2c(/C=C3\SC(=O)NC3=O)cccc2-c2ccccc2)C1` [AZD1208], the drug sensitivity score is 1 in assay [1], 0 in assay [2] and 0 in assay [3].

For the molecule `Cc1cc(Nc2nc(N[C@@H](C)c3ncc(F)cn3)ncc2Cl)[nH]n1` [AZD1480], the drug sensitivity score in assay [1] is 0.2; in assay [2] it was 0; in assay [3], 0.

In the case of `C=CCn1c(=O)c2cnc(Nc3ccc(N4CCN(C)CC4)cc3)nc2n1-c1cccc(C(C)(C)O)n1` [AZD1775], the drug sensitivity score in assay [1] was found to be 12.9; in assay [2], 15.9; in assay [3], 12.1.

With `COc1cc2ncnc(Nc3cccc(Cl)c3F)c2cc1OC(=O)N1CCN(C)C[C@H]1C` [AZD3759], the drug sensitivity score in assay [1] stood at 6.6; in assay [2], 0; in assay [3] it was 0.

For the molecule `Cc1[nH]nc(C(F)(F)F)c1Cc1sc2c(c1C(=O)N1C[C@](C)(O)CO1)c(=O)n(C)c(=O)n2C(C)C` [AZD3965], the drug sensitivity score in assay [1] is 4.5; in assay [2] it was 0; in assay [3] it was 0.
